This note sets out measurements from patent US20240124439A1, “Pyrido[2,3-D]Imidazole Derivatives and Their Use As Inhibitors of ITK for the Treatment of Skin Disease” (Pfizer Inc., priority 2020, published 2024).

Structures are written as SMILES.

Test [1] has as its target IL-2-Inducible T-Cell Kinase (ITK) (Homo sapiens (Human), UniProt Q08881). Nature of the test: ITK enzyme assay (IL-2-inducible T-cell kinase activity). Format: biochemical. To be noted: geometric mean of count n. The method, boiled down:
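Full-length N-Flag/C-His human ITK, pre-incubated 30 min at RT with compound. Reaction in HEPES pH 7.5 buffer with MgCl2, glutathione, gelatin and Brij-35, started with BTK peptide substrate, 60 min at RT. EDTA stop, PT66/APC TR-FRET detection overnight; IC50 fitted by four-parameter logistic.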

Test [2] addresses Tropomyosin Receptor Kinase A (TRKA), NTRK1 enzyme (Homo sapiens (Human), UniProt P04629). In words: TRKA (NTRK1) ThermoFisher Z'-LYTE enzyme assay. Format: biochemical. Conditions: test compound 1 uM, ATP 1 mM; arithmetic mean of count n. As to the method:
TRKA, also known as neurotrophic tyrosine kinase receptor type 1 (NTKR1) activity was determined by measuring the effect of a test compound on the activity against the NTRK1 enzyme using the ThermoFisher Z′-LYTE Assay fluorescence-based coupled enzyme format (www.thermofisher.com/selectscreen). Test compounds were screened at a fixed concentration of 1 uM and the % inhibition was determined compared to controls at a fixed ATP concentration of 1 mM. The resulting effect value for the tested compound was compared to the assay controls to determine the % inhibition (%).

For test [3], the system named is activated CD4+ human T-cells (IL-2). Nature of the test: IL-2 inhibition in supernatants from activated CD4+ human T-cells (cisbio HTRF). Format: cell-based. Conditions: T-cell; CD3/CD28-activated CD4+ human T cells, ImmunoCult stimulation 20 to 24 hrs; geometric mean of count n. The gist of the method:
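Primary human CD4+ T cells activated with CD3/CD28 for 3 days and expanded to 7-9 days total, plated at 30,000 cells/well. Cells preincubated 15 min with compound, then stimulated with ImmunoCult (1:50 final) for 20-24 h at 37° C. Supernatant IL-2 measured by HTRF (665/615 nm); IC50 from four-parameter logistic fit.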
A general note: In TR-FRET formats the signal depends on donor and acceptor labels being close together.

Chain of Tropomyosin Receptor Kinase A (TRKA), NTRK1 enzyme (P04629 33-796): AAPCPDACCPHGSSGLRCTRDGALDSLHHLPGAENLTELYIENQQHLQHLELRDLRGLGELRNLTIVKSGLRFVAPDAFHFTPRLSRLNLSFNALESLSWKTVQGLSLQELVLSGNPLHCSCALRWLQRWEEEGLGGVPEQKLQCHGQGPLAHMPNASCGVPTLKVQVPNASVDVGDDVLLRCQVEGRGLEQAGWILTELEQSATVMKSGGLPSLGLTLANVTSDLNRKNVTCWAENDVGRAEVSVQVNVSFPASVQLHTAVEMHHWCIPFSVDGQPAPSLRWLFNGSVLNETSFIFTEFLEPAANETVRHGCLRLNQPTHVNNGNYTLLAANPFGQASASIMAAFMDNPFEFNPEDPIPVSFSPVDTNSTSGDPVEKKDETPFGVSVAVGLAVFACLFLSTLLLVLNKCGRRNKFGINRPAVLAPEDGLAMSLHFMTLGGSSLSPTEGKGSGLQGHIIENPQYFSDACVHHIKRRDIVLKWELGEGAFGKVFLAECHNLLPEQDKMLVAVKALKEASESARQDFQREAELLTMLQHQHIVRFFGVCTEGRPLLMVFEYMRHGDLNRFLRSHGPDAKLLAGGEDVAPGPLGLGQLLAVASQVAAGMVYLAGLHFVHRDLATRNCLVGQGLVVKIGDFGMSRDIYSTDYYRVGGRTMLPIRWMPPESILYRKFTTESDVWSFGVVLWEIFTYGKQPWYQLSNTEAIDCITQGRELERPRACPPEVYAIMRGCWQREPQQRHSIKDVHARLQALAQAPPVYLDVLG
Chain of IL-2-Inducible T-Cell Kinase (ITK) (Q08881 whole entry): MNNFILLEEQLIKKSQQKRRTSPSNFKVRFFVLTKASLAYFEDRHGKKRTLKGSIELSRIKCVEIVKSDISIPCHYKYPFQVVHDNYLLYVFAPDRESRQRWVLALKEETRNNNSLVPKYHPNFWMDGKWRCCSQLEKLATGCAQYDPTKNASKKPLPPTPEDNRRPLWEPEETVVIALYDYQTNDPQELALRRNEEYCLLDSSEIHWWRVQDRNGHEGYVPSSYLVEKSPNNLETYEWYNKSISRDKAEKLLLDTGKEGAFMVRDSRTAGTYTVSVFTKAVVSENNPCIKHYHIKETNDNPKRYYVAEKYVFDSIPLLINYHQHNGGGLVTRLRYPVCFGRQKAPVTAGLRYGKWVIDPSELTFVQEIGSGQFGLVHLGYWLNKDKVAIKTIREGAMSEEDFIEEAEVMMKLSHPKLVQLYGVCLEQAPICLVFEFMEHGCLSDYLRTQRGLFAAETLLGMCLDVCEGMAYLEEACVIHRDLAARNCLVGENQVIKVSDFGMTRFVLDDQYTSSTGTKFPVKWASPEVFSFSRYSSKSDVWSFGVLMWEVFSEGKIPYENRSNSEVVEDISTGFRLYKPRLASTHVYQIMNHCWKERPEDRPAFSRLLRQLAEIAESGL

For `C[C@@H](C(=O)N(C)c1cnc2[nH]c(-c3n[nH]c4c3C[C@@H]3C[C@]3(C)C4)nc2c1)C1CCOCC1` [Example 1, (R)-N-Methyl-N-(2-((4aS,5aR)-5a-methyl-1,4,4a,5,5a,6-hexahydrocyclopropa[f]indazol-3-yl)-3H-imidazo[4,5-b]pyridin-6-yl)-2-(tetrahydro-2H-pyran-4-yl)propenamide], the concentration for half-maximal inhibition (IC50) was found to be 9 nM in test [1] and 67 nM in test [3]. Further, the inhibition at 1 µM in test [2] was 96%.
Taken in the same sequence, the figures for `CN(C(=O)C(F)(F)C1CCOCC1)c1cnc2[nH]c(-c3n[nH]c4c3C[C@@H]3C[C@]3(C)C4)nc2c1` [Example 2, 2,2-Difluoro-N-methyl-N-(2-((4aS,5aR)-5a-methyl-1,4,4a,5,5a,6-hexahydrocyclopropa[f]indazol-3-yl)-3H-imidazo[4,5-b]pyridin-6-yl)-2-(tetrahydro-2H-pyran-4-yl)acetamide] were 14 nM, 92 nM and 108%.
In the case of `C[C@@H](C(=O)N(C)c1cnc2[nH]c(-c3n[nH]c4c3CCC(C)(C)C4)nc2c1)N1CCOCC1` [Example 14, (S)-N-(2-(6,6-Dimethyl-4,5,6,7-tetrahydro-1H-indazol-3-yl)-3H-imidazo[4,5-b]pyridin-6-yl)-N-methyl-2-morpholinopropanamide], the inhibition at 1 µM in test [2] worked out at 92%. The compound also had an IC50 in test [3] of 157 nM.
On to `CCN(C(=O)[C@H](C)C1CCOCC1)c1cnc2[nH]c(-c3n[nH]c4c3CCC(C)(C)C4)nc2c1` [Example 18], for which the inhibition at 1 µM in test [2] stood at 97%. 162 nM corresponded to half-maximal inhibition in test [3] (IC50).
Taken in the same sequence, the figures for `C[C@H](C(=O)N(C)c1cnc2[nH]c(-c3n[nH]c4c3C[C@@H]3C[C@]3(C)C4)nc2c1)N1CCOCC1` [Example 26, (R)-N-Methyl-N-(2-((4aS,5aR)-5a-methyl-1,4,4a,5,5a,6-hexahydrocyclopropa[f]indazol-3-yl)-3H-imidazo[4,5-b]pyridin-6-yl)-2-morpholinopropanamide] were 91% and 631 nM.
For the compound `C[C@H](C(=O)N(C)c1cnc2[nH]c(-c3n[nH]c4c3C[C@@H]3C[C@]3(C)C4)nc2c1)N1CCCCC1` [Example 117, (R)-N-Methyl-N-(2-((4aS,5aR)-5a-methyl-1,4,4a,5,5a,6-hexahydrocyclopropa[f]indazol-3-yl)-3H-imidazo[4,5-b]pyridin-6-yl)-2-(piperidin-1-yl)propanamide], the half-maximal inhibitory concentration (IC50) in test [1] was 275 nM; in test [3] it was 769 nM.
Take `C[C@@H](C(=O)N(C)c1cnc2[nH]c(-c3n[nH]c4c3C[C@@H]3C[C@]3(C)C4)nc2c1)N1CCCCC1` [Example 118, (S)-N-Methyl-N-(2-((4aS,5aR)-5a-methyl-1,4,4a,5,5a,6-hexahydrocyclopropa[f]indazol-3-yl)-3H-imidazo[4,5-b]pyridin-6-yl)-2-(piperidin-1-yl)propanamide]: the concentration for half-maximal inhibition (IC50) came out at 243 nM in test [1] and 727 nM in test [3].
Taken in the same sequence, the figures for `CC(C(=O)N(C)c1cnc2[nH]c(-c3n[nH]c4c3C[C@@H]3C[C@]3(C)C4)nc2c1)N1C2COCC1C2` (stereo partly drawn) [Example 119, 2-(3-Oxa-6-azabicyclo[3.1.1]heptan-6-yl)-N-methyl-N-(2-((4aS,5aR)-5a-methyl-1,4,4a,5,5a,6-hexahydrocyclopropa[f]indazol-3-yl)-3H-imidazo[4,5-b]pyridin-6-yl)propanamide] were 470 nM and 4210 nM.
Taken in the same sequence, the figures for `CC(C(=O)N(C)c1cnc2[nH]c(-c3n[nH]c4c3C[C@@H]3C[C@]3(C)C4)nc2c1)N1CCCCC1` (stereo partly drawn) [Example 120, N-Methyl-N-(2-((4aS,5aR)-5a-methyl-1,4,4a,5,5a,6-hexahydrocyclopropa[f]indazol-3-yl)-3H-imidazo[4,5-b]pyridin-6-yl)-2] were 788 nM and 2340 nM.

Usually IC50 stands for the concentration that inhibits the measured activity by half. The inhibition is the change of the read-out against control, counted positive when it falls.
